Assay results reported in US5905076A, “6-substituted amino-4-oxa-1-azabicyclo [3,2,0] heptan-7-one derivatives as cysteine protease inhibitors” (National Research Council of Canada, priority 1997, dated 1999).

Columns and labels:
cathepsin B = cathepsin B (Rattus norvegicus, UniProt P00787); experiment: In vitro inhibition of cathepsin B; format: biochemical; settings: r rat cathepsin B, substrate N-CBZ-Phe-Arg-AMC, pH 5.1, 10 min incubation at room temperature
Experimental: In vitro assay procedure for cathepsin B
The compounds of formula I were tested for inhibition of cathepsin B using the known method (A. J. Barret et al., Biochem. J. 1982, 201, 189-198). To a 170 μl of enzyme-buffer mixture (enzyme: r rat cathepsin B, diluted to give approximate 10 F units/min, buffer: 56 mM sodium acetate, 1.124 mM EDTA, 10 mM DTT, pH 5.1) a 10 μL of inhibitor (dissolved in DMSO) was added. After 10 min of incubation at room temperature, a 20 μl of 5 mM substrate (N-CBZ-Phe-Arg-AMC, dissolved in DMSO) was added to initiate reaction. Reading is followed up for 10 min at the fluoroscan reader (excitation at 380 nm emission at 460 nm).
A plot of percentage of inhibition vs inhibitor concentration is obtained, and IC50 is determined using a linear regression calculations (concentration of inhibitor which will give 50% inhibition).

cathepsin L = cathepsin L (Rattus norvegicus, UniProt P07154); experiment: In vitro inhibition of cathepsin L; format: biochemical; settings: r rat cathepsin L, substrate N-CBZ-Phe-Arg-AMC, pH 5.0, 10 min incubation at room temperature
cathepsin L, sequence (P07154 114-334): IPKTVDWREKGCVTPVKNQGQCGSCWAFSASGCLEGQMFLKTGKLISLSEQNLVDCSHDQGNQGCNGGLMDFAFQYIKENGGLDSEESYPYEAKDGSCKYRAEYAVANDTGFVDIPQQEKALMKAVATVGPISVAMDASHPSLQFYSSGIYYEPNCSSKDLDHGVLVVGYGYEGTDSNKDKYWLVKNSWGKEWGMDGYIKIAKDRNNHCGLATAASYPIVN
Experimental: In vitro assay procedure for cathepsin L
After 10 min of incubation at room temperature, a 20 μl of 1 mM substrate (N-CBZ-Phe-Arg-AMC, dissolved in DMSO) was added to initiate reaction. Reading is followed up for 10 min at the fluoroscan reader (excitation at 380 nm emission at 460 nm).

cathepsin B, sequence (P00787 80-339): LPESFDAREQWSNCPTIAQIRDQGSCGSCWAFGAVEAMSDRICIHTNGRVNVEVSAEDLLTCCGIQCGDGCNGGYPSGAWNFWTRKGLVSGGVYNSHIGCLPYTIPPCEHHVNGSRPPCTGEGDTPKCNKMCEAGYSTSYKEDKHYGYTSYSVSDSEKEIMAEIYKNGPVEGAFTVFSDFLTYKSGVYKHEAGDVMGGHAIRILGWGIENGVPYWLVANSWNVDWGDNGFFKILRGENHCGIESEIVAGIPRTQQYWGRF

Compound	IC50 (cathepsin B) [µM]	IC50 (cathepsin L) [µM]
O=C(N[C@@H]1C(=O)N2CCO[C@H]12)OCc1ccccc1 [Example 1, (5R,6S)-6-benzyloxycarbonylamino-4-oxa-1-azabicyclo[3.2.0]heptan-7-one]	> 50	> 50
O=C(N[C@@H]1C(=O)N2CCO[C@H]12)[C@@H]1CCCN1C(=O)OCc1ccccc1 [Example 3, (5R,6S)-6-(N-benzyloxycarbonyl-L-prolyl)-amino-4-oxa-1-azabicyclo[3.2.0]heptan-7-one]	> 50	9.4
O=C(CCc1ccccc1)N[C@@H](Cc1ccccc1)C(=O)N[C@@H]1C(=O)N2CC(c3ccccc3)O[C@H]12 (stereo partly drawn) [Example 9, (5R,6S)-6-{N-(3-phenylpropionoyl)-L-phenylalanyl}-amino-3-phenyl-4-oxa-1-azabicyclo[3,2.0]heptan-7-one]	> 50	> 50
O=C(CCc1ccccc1)N[C@@H](Cc1ccccc1)C(=O)N[C@@H]1C(=O)N2CC(CBr)O[C@@H]12 (stereo partly drawn) [Example 10, (5S,6S)-6-{N-(3-phenylpropionoyl)-L-phenylalanyl}-amino-3-bromomethyl-4-oxa-1-azabicyclo[3.2.0]heptan-7-one]	1.91	0.016

The next lines start with the values.

IC50 (cathepsin B) [µM]	IC50 (cathepsin L) [µM]	Compound
4.56	0.26	O=C(N[C@@H](Cc1ccccc1)C(=O)N[C@@H]1C(=O)N2CCO[C@H]12)OCc1ccccc1 [Example 2, (5R,6S)-6-(N-benzyloxycarbonyl-L-phenylalanyl)-amino-4-oxa-1-azabicyclo[3.2.0]heptan-7-one]
> 50	9.88	CC[C@H](C)[C@H](NC(=O)OCc1ccccc1)C(=O)N[C@@H]1C(=O)N2CCO[C@H]12 [Example 4, (5R,6S)-6-(N-benzyloxycarbonyl-L-isoleucyl)-amino-4-oxa-1-azabicyclo[3.2.0]heptan-7-one]
> 50	–	C[C@H](NC(=O)OCc1ccccc1)C(=O)N[C@@H]1C(=O)N2CCO[C@H]12 [Example 5, (5R,6S)-6-(N-benzyloxycarbonyl-L-alanyl)-amino-4-oxa-1-azabicyclo[3.2,0]heptan-7-one]
30	0.6	CC(C)C[C@H](NC(=O)OCc1ccccc1)C(=O)N[C@@H]1C(=O)N2CCO[C@H]12 [Example 6, (5R,6S)-6-(N-benzyloxycarbonyl-L-leucyl)-amino-4-oxa-1-azabicyclo[3.2,0]heptan-7-one]
> 50	–	O=C(NC(C(=O)N[C@@H]1C(=O)N2CCO[C@H]12)c1ccccc1)OCc1ccccc1 (stereo partly drawn) [Example 7, (5R,6S)-6-(N-benzyloxycarbonyl-phenylglycyl)-amino-4-oxa-1-azabicyclo[3.2.0]heptan-7-one]
12.2	–	O=C(N[C@@H](Cc1ccccc1)C(=O)N[C@@H]1C(=O)N2CCO[C@@H]12)OCc1ccccc1 [Example 8, (5S,6S)-6-(N-benzyloxycarbonyl-L-phenylalanyl)-amino-4-oxa-1-azabicyclo[3.2.0]heptan-7-one]
